Reference: US7407954B2, “Thieno-(1,3)-oxazin-4-ones with lipase inhibiting activity” (Alizyme Therapeutics Limited, priority 2001, dated 2008)

Columns and labels:
[1] = molecular target: T1, human pancreatic lipase (Homo sapiens, UniProt P16233); experiment: Lipase activity, quinine diimine dye colorimetric assay (Sigma Lipase-PS); type: biochemical
T1 sequence (P16233 17-465): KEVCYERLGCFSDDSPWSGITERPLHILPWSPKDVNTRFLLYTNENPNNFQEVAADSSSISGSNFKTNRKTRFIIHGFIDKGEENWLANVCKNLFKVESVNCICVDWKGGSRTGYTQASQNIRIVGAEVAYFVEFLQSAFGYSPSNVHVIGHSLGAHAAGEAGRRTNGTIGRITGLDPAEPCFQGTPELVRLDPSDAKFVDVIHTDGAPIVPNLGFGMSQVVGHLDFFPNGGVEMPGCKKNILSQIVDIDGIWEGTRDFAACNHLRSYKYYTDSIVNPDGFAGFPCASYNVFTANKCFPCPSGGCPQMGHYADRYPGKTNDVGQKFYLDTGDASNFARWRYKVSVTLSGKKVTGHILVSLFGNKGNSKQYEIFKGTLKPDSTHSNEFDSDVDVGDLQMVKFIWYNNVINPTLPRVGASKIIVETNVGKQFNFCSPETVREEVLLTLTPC
Description: Measurement of Lipase Activity Using a Quinine Diimine Dye Calorimetric Assay
The inhibitory activity of the selected compounds to pancreatic lipase was measured in the following assay available from Sigma Ltd (Lipase-PS™, catalog number 805-A):
The glycerol released from the action of pancreatic and monoglyceride lipase was oxidised to release H2O2. The peroxidase reaction step then produces a quinine dye which is pink in colour and absorbs light at a wavelength of 550 nm.
Individual test compounds were dissolved in DMSO (dimethyl sulphoxide) at 10 mM. DMSO was used to avoid any problems with compounds being water-insoluble.
For individual compounds, the IC50 (concentration at which lipase activity is inhibited to one half of the maximum) was calculated by measuring the inhibitory activity from log-dose response curves using a range of inhibitor concentrations.
A range of standard compounds were assayed in the quinine dye calorimetric assay which provides a rapid method to measure lipase inhibitory activity.

[2] = molecular target: T2, porcine pancreatic lipase (Sus scrofa, UniProt P00591); experiment: Lipase enzyme activity, NaOH titration method (lipid micelles); type: biochemical; conditions: NaOH titration assay
T2 sequence (P00591 1-450): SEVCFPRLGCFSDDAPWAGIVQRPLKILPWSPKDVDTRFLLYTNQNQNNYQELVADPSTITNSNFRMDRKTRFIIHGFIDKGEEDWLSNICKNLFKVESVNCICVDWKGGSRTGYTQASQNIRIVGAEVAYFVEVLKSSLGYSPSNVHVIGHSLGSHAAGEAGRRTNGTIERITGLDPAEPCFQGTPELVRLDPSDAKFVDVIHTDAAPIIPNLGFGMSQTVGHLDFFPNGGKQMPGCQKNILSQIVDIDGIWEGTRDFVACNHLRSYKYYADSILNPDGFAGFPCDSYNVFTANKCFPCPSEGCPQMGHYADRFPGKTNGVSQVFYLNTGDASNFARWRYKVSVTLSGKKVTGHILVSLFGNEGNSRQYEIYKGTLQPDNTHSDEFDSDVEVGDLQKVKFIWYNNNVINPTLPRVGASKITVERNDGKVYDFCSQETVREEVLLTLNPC
Description: Measurement of Lipase Enzyme Activity Using a NaOH Titration Method
The inhibitory activity of the selected compound to pancreatic lipase was measured in the assay described in Pasquier et al; 1996, Vol 7, Nutritional Biochemistry, 293-302.
Log dose/response curves were constructed using a range of inhibitor concentrations.
Selected thieno-oxazinone compounds were tested in the NaOH titration assay. In this assay, the activity of porcine pancreatic lipase in a system containing lipid micelles is recorded. These conditions are therefore similar to those encountered in the gastrointestinal tract.

IC50 [1]: < 100 nM
IC50 [2]: ≤ 1000 nM
Compound: O=c1oc(Nc2ccc(Oc3ccccc3)cc2)nc2sc(Cc3ccccc3)cc12 [Compound 50, 6-Phenylmethyl-2-(4-phenoxy)phenylamino-4H-thieno[2,3-d][1,3]oxazin-4-one]
